# Values of other authors in patent US11167084B2, “Control device for controlling the administration of propofol to a patient” (Fresenius Vial SAS, priority 2016, dated 2021).
# Details: Hill equation relating effect-site concentration to BIS; Emax=E0=100, y=2; FIG. 1 from T. A. Lim, Br J Anaesth 2006
smiles,measurement,value
CC(C)c1cccc(C(C)C)c1O [propofol],"EC50 (propofol effective concentration 50, effect-site)",4.14 µg/mL
